The values that follow come from US7241812B2, “Methods and compositions for modulating sphingosine-1-phosphate (S1P) receptor activity” (Praecis Pharmaceuticals, Inc., priority 2004, dated 2007).

The structures appear in SMILES notation. Some results are limits rather than exact numbers.

The target of assay [1] is T1, S1P3 receptor (Homo sapiens, UniProt Q99500).
T1 construct: expressed in transfected cells; host or cells: HEK 293 T cells (crude membrane preparation)
Description: Binding to S1P3 receptor, [33P]sphingosine 1-phosphate displacement on membranes of transfected HEK 293 T cells. As to conditions: 2.5 pM [33P]sphingosine 1-phosphate, 60 minutes at room temperature. Here is the method: (§1) The ability of several of the compounds described herein to bind to the S1P1 or S1P3 receptor was also tested as follows.
(§2) For the membrane preparation, plasmid DNA was transfected into HEK 293 T cells using the FuGENE 6 transfection protocol (publicly available by Roche). Briefly, subconfluent monolayers of HEK 293 T cells were transfected with the DNA mixture containing FuGENE 6 (using a 1:3 ratio). The dishes containing the cells were then placed in a tissue culture incubator (5% CO2, 37° C.). The cells were harvested 48 hours after addition of the DNA by scraping in HME buffer (in mM: 20 HEPES, 5 MgCl2, 1 EDTA, pH 7.4, 1 mM PMSF) containing 10% sucrose on ice, and disrupted using a Dounce homogenizer. After centrifugation at 800×g, the supernatant was diluted with HME without sucrose and centrifuged at 17,000×g for 1 hour. This crude membrane pellet was resuspended in HME with sucrose, aliquoted, and snap-frozen by immersion in liquid nitrogen. The membranes were stored at −70 C. Protein concentration was determined spectroscopically by Bradford protein assay.
(§3) For the binding assay, [^33P]sphingosine 1-phosphate (obtained from American Radiolabeled Chemicals, Inc) was added to membranes in 200 μl in 96-well plates with assay concentrations of 2.5 pM [^33P]sphingosine 1-phosphate, 4 mg/ml BSA, 50 mM HEPES, pH 7.5, 100 mM NaCl, 5 mM MgCl2, and 5 μg of protein. Binding was performed for 60 minutes at room temperature with gentle mixing and terminated by collecting the membranes onto GF/B filter plates. After drying the filter plates for 10 minutes, 50 μl of Microscint 40 was added to each well, and filter-bound radionuclide was measured on a Packard Top Count. Nonspecific binding was defined as the amount of radioactivity remaining in the presence of excess of unlabeled S1P.

In assay [2] the target is T2, S1P1 receptor (Homo sapiens, UniProt P21453).
T2 construct: expressed in transfected cells; host or cells: HEK 293 T cells (crude membrane preparation)
T2 sequence (P21453 whole entry): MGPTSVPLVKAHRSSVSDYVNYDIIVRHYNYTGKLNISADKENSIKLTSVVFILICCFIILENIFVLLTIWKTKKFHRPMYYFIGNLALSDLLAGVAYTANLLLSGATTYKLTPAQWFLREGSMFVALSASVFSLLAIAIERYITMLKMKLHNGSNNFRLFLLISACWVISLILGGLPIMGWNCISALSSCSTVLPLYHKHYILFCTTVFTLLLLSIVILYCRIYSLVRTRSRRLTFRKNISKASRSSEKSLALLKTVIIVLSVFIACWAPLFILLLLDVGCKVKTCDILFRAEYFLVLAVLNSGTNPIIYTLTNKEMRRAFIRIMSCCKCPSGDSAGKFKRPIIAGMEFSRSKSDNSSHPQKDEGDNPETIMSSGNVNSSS
Nature of the assay: Binding to S1P1 receptor, [33P]sphingosine 1-phosphate displacement on membranes of transfected HEK 293 T cells. The conditions noted are these: 2.5 pM [33P]sphingosine 1-phosphate, 60 minutes at room temperature. As to the method:
as §1, §2, §3

T1 sequence (Q99500 whole entry): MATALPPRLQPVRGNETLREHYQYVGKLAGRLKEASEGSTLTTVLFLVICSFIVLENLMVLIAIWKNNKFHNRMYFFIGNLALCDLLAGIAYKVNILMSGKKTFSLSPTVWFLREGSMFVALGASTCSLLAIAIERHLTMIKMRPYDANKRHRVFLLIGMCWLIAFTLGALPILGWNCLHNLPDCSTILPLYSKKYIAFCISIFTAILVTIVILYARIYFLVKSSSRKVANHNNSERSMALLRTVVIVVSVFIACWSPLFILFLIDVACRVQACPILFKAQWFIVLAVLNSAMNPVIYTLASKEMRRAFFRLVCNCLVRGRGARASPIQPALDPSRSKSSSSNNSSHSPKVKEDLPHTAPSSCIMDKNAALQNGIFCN

By IC50 is commonly meant the concentration needed to halve the response being measured. The low end stands for inhibition by little substance, the high end for a need for much substance. Consider `C[C@](N)(CO)C(=O)Nc1ccc(OCc2ccc(-c3ccccc3)cc2)cc1` [compound 153], for which the IC50 stood at 0.285 µM in assay [1] and 0.0008 µM in assay [2]. For `CCCCc1ccc(Oc2ccc(NC(=O)[C@@](C)(N)CO)cc2)cc1` [compound 133] the same measures were over 10 µM and 0.65 µM. Consider `COc1ccc(CCCCOc2ccc(NC(=O)[C@@](C)(N)COP(=O)(O)O)cc2)cc1` [compound 110], for which the IC50 in assay [1] worked out at 2.15 µM; in assay [2], 0.023 µM. Taken in the same sequence, the figures for `C[C@](N)(CO)C(=O)Nc1ccc(OCCc2ccc(-c3ccncc3)cc2)cc1` [compound 156] were 3.25 µM and 0.006 µM.

For `CC(C)c1ccc(-c2ccc(CCOc3ccc(NC(=O)[C@@](C)(N)CO)cc3)cc2)cc1` [compound 150], the values for the 50% inhibitory concentration (IC50) in assay [1] and in assay [2] were 5.03 µM and 0.00055 µM, respectively. Taken in the same sequence, the figures for `CCc1ccc(Oc2ccc(NC(=O)[C@@](C)(N)CO)cc2)cc1` [compound 134] were 1.2 µM and 0.114 µM. Consider `CCCCCCCCc1ccc(CCC2(N)COP(=O)(O)OC2)cc1` (centres unmarked) [compound 45], for which the half-maximal inhibitory concentration (IC50) in assay [1] is 0.343 µM; in assay [2], 0.0024 µM. Take `Cc1cc(NC(=O)[C@@](C)(N)CO)ccc1Oc1ccccc1` [compound 124]: the IC50 in assay [1] came out at 0.164 µM; in assay [2], 0.015 µM. For `C[C@](N)(CO)C(=O)Nc1ccc(Oc2ccc(F)cc2)cc1` [compound 139] the same measures were 0.22 µM and 0.0025 µM.

Regarding `C[C@](N)(CO)C(=O)Nc1ccc(OCCc2ccc(-c3ccoc3)cc2)cc1` [compound 157], the IC50 in assay [2] worked out at 0.0013 µM. This lies in the single-digit nanomolar range. With `CC(C)Oc1cccc(-c2ccc(NC(=O)[C@@](C)(N)CO)cc2)c1` [compound 145], the IC50 is 2 µM in assay [1] and 0.0034 µM in assay [2]. For `C[C@](N)(CO)C(=O)Nc1ccc(Oc2ccc(Cl)cc2)cc1` [compound 138] the same measures were over 10 µM and 3.8 µM. Taken in the same sequence, the figures for `C[C@](N)(COc1ccccc1)C(=O)Nc1ccc(Oc2ccccc2)cc1` [compound 130] were over 10 µM and 0.09 µM.

Regarding `COc1cccc(-c2ccc(NC(=O)[C@@](C)(N)CO)cc2)c1` [compound 142], the 50% inhibitory concentration (IC50) in assay [1] amounted to 0.315 µM; in assay [2] it was 0.008 µM. Take `CCCCCCCc1ccc(C(=O)N[C@@H](C)CO)cc1` [compound 127]: the IC50 is 0.059 µM in assay [1] and 0.056 µM in assay [2]. `CCCCCCCCc1ccc(OC2CN[C@H](CO)C2)cc1` (some centres unmarked) [compound 137]: the results for the IC50 in assay [1] and in assay [2] were over 10 µM and 4 µM, respectively. On to `C[C@](N)(CO)C(=O)Nc1ccc(OCCc2ccc(-c3cccs3)cc2)cc1` [compound 158], for which the IC50 in assay [1] was over 1 µM; in assay [2], 0.15 µM. Taken in the same sequence, the figures for `C[C@](N)(CO)C(=O)Nc1ccc(-c2cccc(OCc3ccccc3)c2)cc1` [compound 147] were 0.13 µM and 0.166 µM. For `C[C@](N)(CO)C(=O)Nc1ccc(Oc2ccccc2)cc1` [compound 129] the same measures were 6.33 µM and 0.0179 µM. Taken in the same sequence, the figures for `C[C@](N)(CO)C(=O)Nc1ccc(OCCc2cccc(-c3ccccc3)c2)cc1` [compound 155] were over 10 µM and over 10 µM. On to `CCc1ccc(OC[C@](C)(N)C(=O)Nc2ccc(Oc3ccc(CC)cc3)cc2)cc1` [compound 131], for which the IC50 was 0.833 µM in assay [1] and 0.218 µM in assay [2]. For `CCCCCCNC(=O)c1ccc(NC(=O)[C@@H](N)[C@@H](C)O)cc1` [compound 125], the IC50 in assay [2] was found to be 2 µM. This lies in the single-digit micromolar range.

`CC(N)(CO)C(=O)Nc1ccc(OCCCCc2ccc(C(F)(F)F)cc2)cc1` (centres unmarked) [compound 141]: the IC50 was 1.04 µM in assay [1] and 0.012 µM in assay [2]. For `C[C@](N)(COP(=O)(O)O)C(=O)Nc1ccc(-c2cnn(Cc3ccccc3)c2)cc1` [compound 105] the same measures were over 10 µM and 2 µM. Taken in the same sequence, the figures for `COc1cccc(Oc2ccc(NC(=O)[C@@](C)(N)CO)cc2)c1` [compound 59] were 0.05 µM and 0.0035 µM. Take `CCc1ccc(-c2ccc(CCOc3ccc(NC(=O)[C@@](C)(N)CO)cc3)cc2)cc1` [compound 46]: the results for the IC50 in assay [1] and in assay [2] were 5 µM and 0.25 µM, respectively.

With `CCCCc1ccc(OC[C@](C)(N)C(=O)Nc2ccc(Oc3ccc(CCCC)cc3)cc2)cc1` [compound 132], the concentration for half-maximal inhibition (IC50) in assay [1] turned out to be 3.5 µM; in assay [2], 0.167 µM. Take `CCCCCNC(=O)c1ccc(NC(=O)[C@@H](N)[C@@H](C)O)cc1` [compound 128]: the IC50 in assay [1] is 0.16 µM; in assay [2] it was 0.00084 µM. For `Cc1ccccc1-c1ccc(CCOc2ccc(NC(=O)[C@@](C)(N)CO)cc2)cc1` [compound 152] the same measures were over 10 µM and over 10 µM. Taken in the same sequence, the figures for `CC(COc1ccc(NC(=O)[C@@](C)(N)CO)cc1)c1ccc(-c2ccccc2)c(F)c1` (some centres unmarked) [compound 160] were over 1 µM and 0.5 µM. Taken in the same sequence, the figures for `CCOc1ccc(-c2ccc(CCOc3ccc(NC(=O)[C@@](C)(N)CO)cc3)cc2)cc1` [compound 47] were 5 µM and 0.023 µM. Consider `CCCCOc1ccc(Oc2ccc(NC(=O)[C@@](C)(N)CO)cc2)cc1` [compound 135], for which the half-maximal inhibitory concentration (IC50) turned out to be 2.5 µM in assay [1] and 0.0221 µM in assay [2]. Taken in the same sequence, the figures for `C[C@](N)(CO)C(=O)Nc1ccc(-c2csc(-c3ccc(-c4ccccc4)cc3)n2)cc1` [compound 154] were over 10 µM and 0.021 µM. Taken in the same sequence, the figures for `CCCCCCCN(C)C(=O)c1ccc(NC(=O)[C@@H](N)[C@@H](C)O)cc1` [compound 126] were over 10 µM and over 10 µM.

With `C[C@](N)(CO)C(=O)Nc1ccc(OCCc2ccc(-c3ccc(Cl)cc3)cc2)cc1` [compound 49], the figures for the IC50 in assay [1] and in assay [2] were 8 µM and 0.24 µM, respectively. For `C[C@](N)(CO)c1ncc(-c2ccc(OCCc3ccc(-c4ccccc4)cc3)cc2)[nH]1` [compound 148] the same measures were over 10 µM and over 10 µM. For `CCCOc1cccc(-c2ccc(NC(=O)[C@@](C)(N)CO)cc2)c1` [compound 144] the same measures were over 10 µM and 2.4 µM. With `COc1ccc(CCOc2ccc(NC(=O)[C@@](C)(N)CO)cc2)cc1OC` [compound 34], the IC50 was over 10 µM in assay [1] and 1 µM in assay [2].
